# Reference: US5326882A, “Chemiluminescent 3-(substituted Adamant-2'-Ylidene) 1,2-dioxetanes” (Tropix, Inc., priority 1992, dated 1994)
# Key:
# Assay type in all cases: biochemical
# [1] = target: T1, alkaline phosphatase (Bos taurus, UniProt P19111); experiment: Alkaline phosphatase detection limits, LabSystems Luminoskan (Example XXV)
# Summary of the method: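 Serial enzyme dilutions incubated in duplicate at room temperature with 0.4 mM 1,2-dioxetane in 0.1 M diethanolamine, 1 mM MgCl2, pH 10.0, plus 1 mg/ml polymeric enhancer. Chemiluminescence integrated over 5 s after 5 or 20 min; detection limit taken as enzyme concentration giving twice background.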
# [2] = target: T1, alkaline phosphatase; experiment: Half-time to plateau at low alkaline phosphatase concentration (Example XLI); details: 0.4 mM dioxetane at pH 10.0; 31.5° C.; 2.53 × 10^-13 M alkaline phosphatase
# [3] = target: T1, alkaline phosphatase; experiment: Chemiluminescent signal and signal:background with enhancer polymers (Example XVII)
# Summary of the method: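 Bovine alkaline phosphatase was added to a final 2.83×10^-13 M in 1,2-dioxetane substrate solution (0.4 mM before enzyme addition). Background luminescence was read before enzyme addition and chemiluminescence at 5 and 20 min, giving signal and signal:background ratio.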
# [4] = target: T1, alkaline phosphatase; experiment: Alkaline phosphatase detection limits, Wilj microtiter plate luminometer (Example XXVI); details: 23 MINUTE INCUBATION
# [5] = target: T2, alkaline phosphatase (calf intestine; Biozyme) (Bos taurus, UniProt P19111); experiment: Total dephosphorylation, chemiluminescence decay (Example XIII); details: 30° C., carbonate/bicarbonate buffer
# T2 construct: purchased Biozyme; host or cells: calf intestine
# T2 sequence (P19111 20-506 limits assumed): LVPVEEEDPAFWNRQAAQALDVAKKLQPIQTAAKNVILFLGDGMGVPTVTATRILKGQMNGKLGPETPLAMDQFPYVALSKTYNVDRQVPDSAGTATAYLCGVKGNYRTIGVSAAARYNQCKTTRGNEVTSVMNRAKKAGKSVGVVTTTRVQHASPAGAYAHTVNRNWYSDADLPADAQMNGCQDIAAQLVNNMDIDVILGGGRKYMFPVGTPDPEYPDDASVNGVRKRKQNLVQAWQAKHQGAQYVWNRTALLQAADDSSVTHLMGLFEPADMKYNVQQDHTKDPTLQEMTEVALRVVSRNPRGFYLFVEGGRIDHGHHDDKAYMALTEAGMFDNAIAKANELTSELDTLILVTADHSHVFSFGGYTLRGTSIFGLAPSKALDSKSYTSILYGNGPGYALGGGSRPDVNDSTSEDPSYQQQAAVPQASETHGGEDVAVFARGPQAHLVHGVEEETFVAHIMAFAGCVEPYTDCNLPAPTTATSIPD
# T1 sequence (P19111 20-506 limits assumed): as above
structure (smiles),measurement,setting,value
"COC1(c2cccc(OP(=O)(O)O)c2)OOC12C1CC3CC(C1)CC2C3 (centres unmarked) [AMPPD, 3-(4-methoxyspiro[1,2-dioxetane-3,2'-triyclo[3.3.1.1^3,7]decan]-4-yl)phenyl phosphate, reference compound]",Alkaline phosphatase detection limit (at 2× background),"[1]; SAPPHIRE II, 5 MINUTE INCUBATION",0.0025 pM
same,Alkaline phosphatase detection limit (at 2× background),"[1]; SAPPHIRE II, 20 MINUTE INCUBATION",0.0011 pM
same,Alkaline phosphatase detection limit (at 2× background),"[1]; SAPPHIRE, 5 MINUTE INCUBATION",0.0038 pM
same,Alkaline phosphatase detection limit (at 2× background),"[1]; SAPPHIRE, 20 MINUTE INCUBATION",0.0014 pM
same,HALF-TIME TO PLATEAU (min.) AL LOW ALK PHOS CONCENTRATION,[2],1.97 min
same,S/N,"[3]; polymer BAEDM, 5 min",107.6
same,SIGNAL,"[3]; polymer BAEDM, 5 min",9275.3
same,S/N,"[3]; polymer BAEDM, 20 min",306.5
same,SIGNAL,"[3]; polymer BAEDM, 20 min",26529.1
same,S/N,"[3]; polymer BAEDM, time 0",1.0
same,SIGNAL,"[3]; polymer BAEDM, time 0 (background, before enzyme)",217.3
same,S/N,"[3]; polymer BZ, 5 min",18.3
same,SIGNAL,"[3]; polymer BZ, 5 min",2738.0
same,S/N,"[3]; polymer BZ, 20 min",30.9
same,SIGNAL,"[3]; polymer BZ, 20 min",4611.5
same,S/N,"[3]; polymer BZ, time 0",1.0
same,SIGNAL,"[3]; polymer BZ, time 0 (background, before enzyme)",149.4
same,S/N,"[3]; polymer DAA TMQ, 5 min",46.4
same,SIGNAL,"[3]; polymer DAA TMQ, 5 min",8354.4
same,S/N,"[3]; polymer DAA TMQ, 20 min",83.1
same,SIGNAL,"[3]; polymer DAA TMQ, 20 min",14957.3
same,S/N,"[3]; polymer DAA TMQ, time 0",1.0
same,SIGNAL,"[3]; polymer DAA TMQ, time 0 (background, before enzyme)",180.0
same,S/N,"[3]; polymer DME(OH)B, 5 min",21.4
same,SIGNAL,"[3]; polymer DME(OH)B, 5 min",3462.3
same,S/N,"[3]; polymer DME(OH)B, 20 min",52.9
same,SIGNAL,"[3]; polymer DME(OH)B, 20 min",8540.9
same,S/N,"[3]; polymer DME(OH)B, time 0",1.0
same,SIGNAL,"[3]; polymer DME(OH)B, time 0 (background, before enzyme)",161.6
same,S/N,"[3]; polymer DMEB, 5 min",52.6
same,SIGNAL,"[3]; polymer DMEB, 5 min",9401.5
same,S/N,"[3]; polymer DMEB, 20 min",114.4
same,SIGNAL,"[3]; polymer DMEB, 20 min",20434.9
same,S/N,"[3]; polymer DMEB, time 0",1.0
same,SIGNAL,"[3]; polymer DMEB, time 0 (background, before enzyme)",178.6
same,S/N,"[3]; polymer DMQ TEQ, 5 min",133.9
same,SIGNAL,"[3]; polymer DMQ TEQ, 5 min",32820.5
same,S/N,"[3]; polymer DMQ TEQ, 20 min",322.1
same,SIGNAL,"[3]; polymer DMQ TEQ, 20 min",78977.4
same,S/N,"[3]; polymer DMQ TEQ, time 0",1.0
same,SIGNAL,"[3]; polymer DMQ TEQ, time 0 (background, before enzyme)",245.2
same,SIGNAL,"[3]; polymer EMERALD (sapphire and fluorescein), time 0 (background, before enzyme)",2902.1
same,S/N,"[3]; polymer EMERALD, 5 min",109.4
same,SIGNAL,"[3]; polymer EMERALD, 5 min",317571.6
same,S/N,"[3]; polymer EMERALD, 20 min",282.1
same,SIGNAL,"[3]; polymer EMERALD, 20 min",818775.8
same,S/N,"[3]; polymer EMERALD, time 0",1.0
same,S/N,"[3]; polymer MPB, 5 min",94.3
same,SIGNAL,"[3]; polymer MPB, 5 min",19971.8
same,S/N,"[3]; polymer MPB, 20 min",196.9
same,SIGNAL,"[3]; polymer MPB, 20 min",41701.8
same,S/N,"[3]; polymer MPB, time 0",1.0
same,SIGNAL,"[3]; polymer MPB, time 0 (background, before enzyme)",211.8
same,S/N,"[3]; polymer NONE, 5 min",21.5
same,SIGNAL,"[3]; polymer NONE, 5 min, enzyme 2.83×10^-13 M",3706.0
same,S/N,"[3]; polymer NONE, 20 min",34.4
same,SIGNAL,"[3]; polymer NONE, 20 min, enzyme 2.83×10^-13 M",5944.8
same,S/N,"[3]; polymer NONE, time 0",1.0
same,SIGNAL,"[3]; polymer NONE, time 0 (background, before enzyme)",172.6
same,S/N,"[3]; polymer S/TMQ(1:2), 5 min",20.2
same,SIGNAL,"[3]; polymer S/TMQ(1:2), 5 min",3437.0
same,S/N,"[3]; polymer S/TMQ(1:2), 20 min",58.9
same,SIGNAL,"[3]; polymer S/TMQ(1:2), 20 min",9994.7
same,S/N,"[3]; polymer S/TMQ(1:2), time 0",1.0
same,SIGNAL,"[3]; polymer S/TMQ(1:2), time 0 (background, before enzyme)",169.8
same,S/N,"[3]; polymer S/TMQ(1:4), 5 min",35.7
same,SIGNAL,"[3]; polymer S/TMQ(1:4), 5 min",5931.5
same,S/N,"[3]; polymer S/TMQ(1:4), 20 min",95.4
same,SIGNAL,"[3]; polymer S/TMQ(1:4), 20 min",15866.3
same,S/N,"[3]; polymer S/TMQ(1:4), time 0",1.0
same,SIGNAL,"[3]; polymer S/TMQ(1:4), time 0 (background, before enzyme)",116.3
same,SIGNAL,"[3]; polymer SAPPHIRE (BDMQ), time 0 (background, before enzyme)",241.4
same,S/N,"[3]; polymer SAPPHIRE, 5 min",159.3
same,SIGNAL,"[3]; polymer SAPPHIRE, 5 min",38457.8
same,S/N,"[3]; polymer SAPPHIRE, 20 min",353.6
same,SIGNAL,"[3]; polymer SAPPHIRE, 20 min",85359.8
same,S/N,"[3]; polymer SAPPHIRE, time 0",1.0
same,SIGNAL,"[3]; polymer TBQ-FLUOR (TBQ and fluorescein), time 0 (background, before enzyme)",4961.2
same,S/N,"[3]; polymer TBQ-FLUOR, 5 min",113.9
same,SIGNAL,"[3]; polymer TBQ-FLUOR, 5 min",57271.6
same,S/N,"[3]; polymer TBQ-FLUOR, 20 min",291.4
same,SIGNAL,"[3]; polymer TBQ-FLUOR, 20 min",1445675.6
same,S/N,"[3]; polymer TBQ-FLUOR, time 0",1.0
same,S/N,"[3]; polymer TBQ, 5 min",191.2
same,SIGNAL,"[3]; polymer TBQ, 5 min",94429.4
same,S/N,"[3]; polymer TBQ, 20 min",433.9
same,SIGNAL,"[3]; polymer TBQ, 20 min",214319.4
same,S/N,"[3]; polymer TBQ, time 0",1.0
same,SIGNAL,"[3]; polymer TBQ, time 0 (background, before enzyme)",493.9
same,S/N,"[3]; polymer TEQ, 5 min",115.3
same,SIGNAL,"[3]; polymer TEQ, 5 min",25095.8
same,S/N,"[3]; polymer TEQ, 20 min",229.7
same,SIGNAL,"[3]; polymer TEQ, 20 min",50020.0
same,S/N,"[3]; polymer TEQ, time 0",1.0
same,SIGNAL,"[3]; polymer TEQ, time 0 (background, before enzyme)",217.8
same,S/N,"[3]; polymer TMQ, 5 min",65.8
same,SIGNAL,"[3]; polymer TMQ, 5 min",10525.8
same,S/N,"[3]; polymer TMQ, 20 min",141.1
same,SIGNAL,"[3]; polymer TMQ, 20 min",22558.3
same,S/N,"[3]; polymer TMQ, time 0",1.0
same,SIGNAL,"[3]; polymer TMQ, time 0 (background, before enzyme)",159.9
same,Alkaline phosphatase detection limit (at 2× background),[4]; SAPPHIRE II,0.0013 pM
same,Alkaline phosphatase detection limit (at 2× background),[4]; SAPPHIRE,0.0019 pM
same,Total Decay Time,[5],60 min
same,Decay Rate I,[5]; RLU's per minute,0.1 RLU's per minute
same,Decay Rate II,[5]; RLU's per minute,0.3 RLU's per minute
same,Decay Rate III,[5]; RLU's per minute,0.8 RLU's per minute
